According to PubChem BioAssay (NCI):
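Exposure lasted 48 hours, with cells grown in 96-well plates and compounds tested at five concentrations. At the GI50, growth is halved. At the TGI there is no net growth.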

What was measured:
Assay in all cases: growth of human tumour cells (NCI), 48 h
[1] = system: K-562 leukemia
[2] = system: ACHN renal
[3] = system: MOLT-4 leukemia
[4] = system: BT-549 breast
[5] = system: CCRF-CEM leukemia
[6] = system: SF-295 CNS
[7] = system: HT29 colon
[8] = system: SF-539 CNS
[9] = system: SK-MEL-28 melanoma
[10] = system: MDA-MB-231 breast
[11] = system: 786-0 renal
[12] = system: EKVX NSCLC
[13] = system: T-47D breast
[14] = system: HCT-116 colon
[15] = system: MALME-3M melanoma
[16] = system: SNB-19 CNS
[17] = system: OVCAR-8 ovarian
[18] = system: SF-268 CNS
[19] = system: TK-10 renal
[20] = system: HL-60(TB) leukemia
[21] = system: UACC-62 melanoma
[22] = system: A549 NSCLC
[23] = system: HOP-62 NSCLC
[24] = system: M14 melanoma
[25] = system: LOX IMVI melanoma
[26] = system: DU-145 prostate
[27] = system: A498 renal
[28] = system: NCI-H226 lung
[29] = system: SK-OV-3 ovarian
[30] = system: UACC-257 melanoma
[31] = system: OVCAR-5 ovarian
[32] = system: IGROV1 ovarian
[33] = system: MDA-MB-435
[34] = system: CAKI-1 renal
[35] = system: NCI/ADR-RES ovarian
[36] = system: KM12 colon
[37] = system: HCC-2998 colon
[38] = system: SW-620 colon
[39] = system: MCF7 breast
[40] = system: NCI-H522 lung
[41] = system: U251 CNS
[42] = system: RPMI-8226 leukemia
[43] = system: HS 578T breast
[44] = system: HOP-92 NSCLC
[45] = system: PC-3 prostate
[46] = system: HCT-15 colon
[47] = system: NCI-H23 lung
[48] = system: SK-MEL-5 melanoma
[49] = system: RXF 393 renal
[50] = system: COLO 205 colon
[51] = system: OVCAR-3 ovarian
[52] = system: SNB-75 CNS
[53] = system: NCI-H460 lung
[54] = system: SN12C renal
[55] = system: SR leukemia
[56] = system: UO-31 renal

**Q.** With `COC(=O)CCC1=C(CC(=O)OC)C(C)=N/C1=C\c1[nH]c(-c2ccc[nH]2)cc1OC` as the molecule, how does the GI50 [1] read?
**A.** 2.7 µM

**Q.** And the TGI [1]?
**A.** 12.5 µM

**Q.** What about the GI50 [2] of the same molecule?
**A.** 4.26 µM

**Q.** What about the TGI [2] of the same molecule?
**A.** 15.6 µM

**Q.** What about the GI50 [3] of the same molecule?
**A.** 2.31 µM

**Q.** And the TGI [3]?
**A.** 20.1 µM

**Q.** And the GI50 [4]?
**A.** 6.49 µM

**Q.** And the TGI [4]?
**A.** 21.6 µM

**Q.** And the GI50 [5]?
**A.** 1.68 µM

**Q.** What about the TGI [5] of the same molecule?
**A.** 29.8 µM

**Q.** And the GI50 [6]?
**A.** 3.25 µM

**Q.** What about the TGI [6] of the same molecule?
**A.** 15.1 µM

**Q.** What about the GI50 [7] of the same molecule?
**A.** 0.557 µM

**Q.** And the TGI [7]?
**A.** 10.3 µM

**Q.** What about the GI50 [8] of the same molecule?
**A.** 5.63 µM

**Q.** What about the TGI [8] of the same molecule?
**A.** 20.6 µM

**Q.** What about the GI50 [9] of the same molecule?
**A.** 12.3 µM

**Q.** What about the TGI [9] of the same molecule?
**A.** 25 µM

**Q.** And the GI50 [10]?
**A.** 2.37 µM

**Q.** And the TGI [10]?
**A.** 11.6 µM

**Q.** And the GI50 [11]?
**A.** 2.73 µM

**Q.** And the TGI [11]?
**A.** 10.2 µM

**Q.** And the GI50 [12]?
**A.** 5.61 µM

**Q.** What about the TGI [12] of the same molecule?
**A.** 25.3 µM

**Q.** And the GI50 [13]?
**A.** 3.55 µM

**Q.** And the TGI [13]?
**A.** 16.3 µM

**Q.** What about the GI50 [14] of the same molecule?
**A.** 1.36 µM

**Q.** What about the TGI [14] of the same molecule?
**A.** 11.5 µM

**Q.** What about the GI50 [15] of the same molecule?
**A.** 6.8 µM

**Q.** What about the TGI [15] of the same molecule?
**A.** 23.3 µM

**Q.** And the GI50 [16]?
**A.** 11.6 µM

**Q.** And the TGI [16]?
**A.** 31.1 µM

**Q.** What about the GI50 [17] of the same molecule?
**A.** 2.92 µM

**Q.** And the TGI [17]?
**A.** 11.4 µM

**Q.** And the GI50 [18]?
**A.** 5.95 µM

**Q.** What about the TGI [18] of the same molecule?
**A.** 21.3 µM

**Q.** What about the GI50 [19] of the same molecule?
**A.** 3.58 µM

**Q.** And the TGI [19]?
**A.** 16.6 µM

**Q.** What about the GI50 [20] of the same molecule?
**A.** 2.56 µM

**Q.** And the TGI [20]?
**A.** 14.3 µM

**Q.** What about the GI50 [21] of the same molecule?
**A.** 3.09 µM

**Q.** And the TGI [21]?
**A.** 11.5 µM

**Q.** What about the GI50 [22] of the same molecule?
**A.** 3.34 µM

**Q.** What about the TGI [22] of the same molecule?
**A.** 13 µM

**Q.** And the GI50 [23]?
**A.** 8.56 µM

**Q.** What about the TGI [23] of the same molecule?
**A.** 24.2 µM

**Q.** What about the GI50 [24] of the same molecule?
**A.** 4.51 µM

**Q.** And the TGI [24]?
**A.** 16.2 µM

**Q.** And the GI50 [25]?
**A.** 0.788 µM

**Q.** What about the TGI [25] of the same molecule?
**A.** 3.11 µM

**Q.** And the GI50 [26]?
**A.** 5.87 µM

**Q.** What about the TGI [26] of the same molecule?
**A.** 22.6 µM

**Q.** And the GI50 [27]?
**A.** 10.6 µM

**Q.** What about the TGI [27] of the same molecule?
**A.** 23.9 µM

**Q.** And the GI50 [28]?
**A.** 3.29 µM

**Q.** What about the TGI [28] of the same molecule?
**A.** 19.6 µM

**Q.** And the GI50 [29]?
**A.** 13.3 µM

**Q.** And the TGI [29]?
**A.** 28.4 µM

**Q.** And the GI50 [30]?
**A.** 4.47 µM

**Q.** What about the TGI [30] of the same molecule?
**A.** 17 µM

**Q.** What about the GI50 [31] of the same molecule?
**A.** 3.9 µM

**Q.** And the TGI [31]?
**A.** 18.8 µM

**Q.** What about the GI50 [32] of the same molecule?
**A.** 4.21 µM

**Q.** And the TGI [32]?
**A.** 28.6 µM

**Q.** What about the GI50 [33] of the same molecule?
**A.** 5.81 µM

**Q.** What about the TGI [33] of the same molecule?
**A.** 23.3 µM

**Q.** What about the GI50 [34] of the same molecule?
**A.** 3.07 µM

**Q.** What about the TGI [34] of the same molecule?
**A.** 11.6 µM

**Q.** What about the GI50 [35] of the same molecule?
**A.** 4.06 µM

**Q.** And the TGI [35]?
**A.** 16.9 µM

**Q.** What about the GI50 [36] of the same molecule?
**A.** 2.67 µM

**Q.** And the TGI [36]?
**A.** 15 µM

**Q.** What about the GI50 [37] of the same molecule?
**A.** 3.46 µM

**Q.** What about the TGI [37] of the same molecule?
**A.** 15.6 µM

**Q.** What about the GI50 [38] of the same molecule?
**A.** 3.63 µM

**Q.** What about the TGI [38] of the same molecule?
**A.** 18 µM

**Q.** What about the GI50 [39] of the same molecule?
**A.** 2.38 µM

**Q.** And the TGI [39]?
**A.** 13.5 µM

**Q.** What about the GI50 [40] of the same molecule?
**A.** 1.81 µM

**Q.** What about the TGI [40] of the same molecule?
**A.** 3.97 µM

**Q.** What about the GI50 [41] of the same molecule?
**A.** 2.48 µM

**Q.** What about the TGI [41] of the same molecule?
**A.** 12.6 µM

**Q.** And the GI50 [42]?
**A.** 1.44 µM

**Q.** What about the TGI [42] of the same molecule?
**A.** 4.91 µM

**Q.** And the GI50 [43]?
**A.** 4.09 µM

**Q.** And the TGI [43]?
**A.** 18.7 µM

**Q.** What about the GI50 [44] of the same molecule?
**A.** 1.83 µM

**Q.** And the TGI [44]?
**A.** 5.9 µM

**Q.** What about the GI50 [45] of the same molecule?
**A.** 5.32 µM

**Q.** And the TGI [45]?
**A.** 22.6 µM

**Q.** And the GI50 [46]?
**A.** 2.04 µM

**Q.** And the TGI [46]?
**A.** 15.2 µM

**Q.** What about the GI50 [47] of the same molecule?
**A.** 4.42 µM

**Q.** And the TGI [47]?
**A.** 21 µM

**Q.** What about the GI50 [48] of the same molecule?
**A.** 1.44 µM

**Q.** And the TGI [48]?
**A.** 3.23 µM

**Q.** And the GI50 [49]?
**A.** 2.15 µM

**Q.** What about the TGI [49] of the same molecule?
**A.** 9.56 µM

**Q.** And the GI50 [50]?
**A.** 3.79 µM

**Q.** What about the TGI [50] of the same molecule?
**A.** 16.3 µM

**Q.** And the GI50 [51]?
**A.** 2.43 µM

**Q.** And the TGI [51]?
**A.** 10.2 µM

**Q.** What about the GI50 [52] of the same molecule?
**A.** 4.9 µM

**Q.** And the TGI [52]?
**A.** 19.1 µM

**Q.** And the GI50 [53]?
**A.** 3.72 µM

**Q.** And the TGI [53]?
**A.** 13.7 µM

**Q.** And the GI50 [54]?
**A.** 11.1 µM

**Q.** And the TGI [54]?
**A.** 24.9 µM

**Q.** And the GI50 [55]?
**A.** 1.71 µM

**Q.** And the TGI [55]?
**A.** 7.7 µM

**Q.** What about the GI50 [56] of the same molecule?
**A.** 3.44 µM

**Q.** What about the TGI [56] of the same molecule?
**A.** 14.7 µM
